ChEMBL document CHEMBL5620348, “3-Hydroxy-pyridin-4(1H)-ones as siderophores mediated delivery of isobavachalcone enhances antibacterial activity against pathogenic Pseudomonas aeruginosa” (Eur J Med Chem, 2023)
The source made the active and inactive calls. The calls are words filed in the database; no cut-off is given here.

What was measured:
Staphylococcus aureus [1] = experiment: Antibacterial activity against Staphylococcus aureus ATCC 25923 assessed as inhibition of bacterial growth by measuring minimum inhibitory concentration incubated for 18 to 20 hrs in presence of M9 medium by broth microdilution assay; format: functional; details: time 18-20 hrs
Pseudomonas aeruginosa [2] = experiment: Antibacterial activity against Pseudomonas aeruginosa ATCC27853 assessed as inhibition of bacterial growth by measuring minimum inhibitory concentration incubated for 18 to 20 hrs in presence of M9 medium by broth microdilution assay; format: functional; details: time 18-20 hrs
Pseudomonas aeruginosa [3] = experiment: Antibacterial activity against Pseudomonas aeruginosa PAO1 assessed as inhibition of bacterial growth by measuring minimum inhibitory concentration incubated for 18 to 20 hrs in presence of M9 medium by broth microdilution assay; format: functional; details: time 18-20 hrs
Pseudomonas aeruginosa [4] = experiment: Antibacterial activity against Pseudomonas aeruginosa PAO1 assessed as inhibition of bacterial growth incubated for 18 to 20 hrs in presence of M9 medium by broth microdilution assay; format: functional, organism-based
Pseudomonas aeruginosa [5] = experiment: Antibacterial activity against Pseudomonas aeruginosa PAO1 assessed as inhibition of bacterial growth incubated for 18 to 20 hrs in presence of M9 and FeCl3 medium by broth microdilution assay; format: functional, organism-based
Pseudomonas aeruginosa [6] = experiment: Antibacterial activity against Pseudomonas aeruginosa PAO1 assessed as inhibition of bacterial growth incubated for 18 to 20 hrs in presence of MH medium by broth microdilution assay; format: functional, organism-based
Pseudomonas aeruginosa [7] = experiment: Antibacterial activity against multi-drug resistant Pseudomonas aeruginosa clinical isolate 1167 assessed as inhibition of bacterial growth by measuring minimum inhibitory concentration incubated for 18 to 20 hrs in presence of M9 medium by broth microdilution assay; format: functional; details: time 18-20 hrs
Pseudomonas aeruginosa [8] = experiment: Antibacterial activity against multi-drug resistant Pseudomonas aeruginosa clinical isolate 1121 assessed as inhibition of bacterial growth by measuring minimum inhibitory concentration incubated for 18 to 20 hrs in presence of M9 medium by broth microdilution assay; format: functional; details: time 18-20 hrs
Escherichia coli = experiment: Antibacterial activity against Escherichia coli ATCC 25922 assessed as inhibition of bacterial growth by measuring minimum inhibitory concentration incubated for 18 to 20 hrs in presence of M9 medium by broth microdilution assay; format: functional; details: time 18-20 hrs
Pseudomonas aeruginosa [9] = experiment: Antibacterial activity against multi-drug resistant Pseudomonas aeruginosa clinical isolate 1129 assessed as inhibition of bacterial growth by measuring minimum inhibitory concentration incubated for 18 to 20 hrs in presence of M9 medium by broth microdilution assay; format: functional; details: time 18-20 hrs
Klebsiella pneumoniae = experiment: Antibacterial activity against Klebsiella pneumoniae ATCC 700603 assessed as inhibition of bacterial growth by measuring minimum inhibitory concentration incubated for 18 to 20 hrs in presence of M9 medium by broth microdilution assay; format: functional; details: time 18-20 hrs
Pseudomonas aeruginosa [10] = experiment: Antibacterial activity against Pseudomonas aeruginosa PAO1 assessed as inhibition of bacterial growth by measuring minimum inhibitory concentration incubated for 18 to 20 hrs in presence of MH medium by broth microdilution assay; format: functional; details: time 18-20 hrs
Pseudomonas aeruginosa [11] = experiment: Antibacterial activity against Pseudomonas aeruginosa PAO1 assessed as inhibition of bacterial growth by measuring minimum inhibitory concentration incubated for 18 to 20 hrs in presence of M9 and FeCl3 medium by broth microdilution assay; format: functional; details: time 18-20 hrs
Pseudomonas aeruginosa [12] = experiment: Antibacterial activity against multi-drug resistant Pseudomonas aeruginosa clinical isolate FB assessed as inhibition of bacterial growth by measuring minimum inhibitory concentration incubated for 18 to 20 hrs in presence of M9 medium by broth microdilution assay; format: functional; details: time 18-20 hrs
Pseudomonas aeruginosa [13] = experiment: Antibacterial activity against Pseudomonas aeruginosa PAO1 assessed as reduction in metabolic activity incubated for 6 hrs by resazurin reagent based microplate reader analysis; format: functional, organism-based
Vero [14] = experiment: Cytotoxicity against green monkey Vero cells assessed as reduction in cell viability at > 32 ug/ml incubated for 24 hrs by MTT assay; format: toxicity, cell-based; details: chlorocebus sabaeus, dose > 32 µg/ml
Pseudomonas aeruginosa [15] = experiment: Antibacterial activity against Pseudomonas aeruginosa PAO1 assessed as inhibition of bacterial growth at 1 to 4 times MIC incubated upto 24 hrs by time-kill based microplate reader assay; format: functional, organism-based
Pseudomonas aeruginosa [16] = experiment: Antibacterial activity against Pseudomonas aeruginosa PAO1 assessed as inhibition of bacterial growth at 2 times MIC incubated upto 24 hrs in presence of Fe(III) by time-kill based microplate reader assay; format: functional, organism-based
Pseudomonas aeruginosa [17] = experiment: Antibacterial activity against Pseudomonas aeruginosa PAO1 infected in Caenorhabditis elegans assessed as increase in worm survival rate at 0.5 times MIC incubated for 60 hrs; format: functional, organism-based
Cell membrane [18] = experiment: Disruption of cell membrane integrity in Pseudomonas aeruginosa PAO1 assessed as increase in red fluorescence incubated for 5.5 hrs by propidium iodide staining based confocal laser-scanning microscopic analysis; format: cell membranes
Cell membrane [19] = experiment: Disruption of cell membrane integrity in Pseudomonas aeruginosa PAO1 assessed as increase in nucleic acid leakage at 0.5 to 4 MIC incubated for 6 hrs by microplate reader analysis; format: cell membranes
Staphylococcus aureus [20] = experiment: Bactericidal activity against Staphylococcus aureus ATCC 25923 assessed as inhibition of bacterial growth at 1 to 2 times MIC incubated upto 24 hrs by time-kill based microplate reader assay; format: functional, organism-based
Cell membrane [21] = experiment: Disruption of cell membrane integrity in Pseudomonas aeruginosa PAO1 assessed as increase in protein leakage at 0.5 to 4 MIC incubated for 6 hrs by BCA protein assay; format: cell membranes
Pseudomonas aeruginosa [22] = experiment: Antibacterial activity against Pseudomonas aeruginosa PAO1 infected in Caenorhabditis elegans assessed as increase in worm survival rate at 2 times MIC incubated for 60 hrs relative to control; format: functional
Vero [23] = experiment: Cytotoxicity against green monkey Vero cells assessed as reduction in cell viability at 128 ug/ml incubated for 24 hrs by MTT assay; format: toxicity, cell-based; details: chlorocebus sabaeus, dose 128 µg/ml
Staphylococcus aureus [24] = experiment: Antibacterial activity against Staphylococcus aureus ATCC 25923 assessed as inhibition of bacterial growth incubated for 18 to 20 hrs in presence of M9 medium by broth microdilution assay; format: functional, organism-based; details: time 18-20 hrs

Row | SMILES | MIC (Staphylococcus aureus [1]) | MIC (Pseudomonas aeruginosa [2]) | MIC (Pseudomonas aeruginosa [3]) | IC50 (Pseudomonas aeruginosa [4]) | IC50 (Pseudomonas aeruginosa [5]) | IC50 (Pseudomonas aeruginosa [6]) | MIC (Pseudomonas aeruginosa [7]) | MIC (Pseudomonas aeruginosa [8]) | MIC (Escherichia coli) | MIC (Pseudomonas aeruginosa [9]) | MIC (Klebsiella pneumoniae) | MIC (Pseudomonas aeruginosa [10]) | MIC (Pseudomonas aeruginosa [11]) | MIC (Pseudomonas aeruginosa [12]) | further results
1 | CCn1cc(C(=O)O)c(=O)c2cc(F)c(N3CCNCC3)cc21 [NORFLOXACIN] | 2 µg/mL | 1 µg/mL | 0.25 µg/mL | 0.08 µg/mL | 0.07 µg/mL | 0.03 µg/mL | 0.25 µg/mL | 0.5 µg/mL | 0.015 µg/mL | 1 µg/mL | 2 µg/mL | 0.125 µg/mL | 0.25 µg/mL | 0.5 µg/mL | –
2 | CC(C)=CCc1c(O)ccc(C(=O)/C=C/c2ccc(OCCCCCC(=O)NCc3cc(=O)c(O)cn3C)cc2)c1O | 32 µg/mL | 32 µg/mL | 16 µg/mL | 1.46 µg/mL | > 128 µg/mL | 19.4 µg/mL | 32 µg/mL | 16 µg/mL | > 128 µg/mL | 32 µg/mL | > 128 µg/mL | 32 µg/mL | > 128 µg/mL | 16 µg/mL | –
3 | CC(C)=CCc1c(O)ccc(C(=O)/C=C/c2ccc(OCCCOCc3cc(=O)c(O)cn3C)cc2)c1O | 32 µg/mL | 32 µg/mL | 16 µg/mL | 1.45 µg/mL | > 128 µg/mL | 16.8 µg/mL | 8 µg/mL | 8 µg/mL | > 128 µg/mL | 8 µg/mL | > 128 µg/mL | 32 µg/mL | > 128 µg/mL | 16 µg/mL | Activity (Pseudomonas aeruginosa [13]): Dose-Dependent Effect; Activity (Vero [14]): Toxic; Activity (Pseudomonas aeruginosa [15]): Active; Activity (Pseudomonas aeruginosa [16]): inactive; Activity (Pseudomonas aeruginosa [17]): inactive; Activity (Cell membrane [18]): Dose-Dependent Effect; Activity (Cell membrane [19]): Active; Activity (Staphylococcus aureus [20]): inactive; Activity (Cell membrane [21]): Active; Survival (Pseudomonas aeruginosa [22]): 55%; Activity (Vero [23]): Non-Toxic
4 | CC(C)=CCc1c(O)ccc(C(=O)/C=C/c2ccc(OCCCOCc3c(O)c(=O)cc(C)n3C)cc2)c1O | 32 µg/mL | 32 µg/mL | 16 µg/mL | 3.27 µg/mL | > 128 µg/mL | 16.2 µg/mL | 8 µg/mL | 16 µg/mL | > 128 µg/mL | 16 µg/mL | > 128 µg/mL | 32 µg/mL | > 128 µg/mL | 16 µg/mL | –
5 | CC(C)=CCc1c(O)ccc(C(=O)/C=C/c2ccc(OCCCCCCOCc3cc(=O)c(O)cn3C)cc2)c1O | > 128 µg/mL | 32 µg/mL | 16 µg/mL | 3.39 µg/mL | > 128 µg/mL | 7.31 µg/mL | 8 µg/mL | 8 µg/mL | > 128 µg/mL | 8 µg/mL | > 128 µg/mL | 16 µg/mL | > 128 µg/mL | 16 µg/mL | Activity (Staphylococcus aureus [24]): inactive
6 | CC(C)=CCc1c(OCCCCn2cc(COCc3cc(=O)c(O)cn3C)nn2)ccc(C(=O)/C=C/c2ccc(O)cc2)c1O | 32 µg/mL | 32 µg/mL | 16 µg/mL | 2.55 µg/mL | > 128 µg/mL | 17.8 µg/mL | 16 µg/mL | 8 µg/mL | > 128 µg/mL | 16 µg/mL | > 128 µg/mL | 32 µg/mL | > 128 µg/mL | 16 µg/mL | –
